Columns and labels:
[1] = tested on: cervical epithelioid carcinoma (HeLa); assay: MTT cytotoxicity assay, HeLa; format: cell-based, human; conditions: dose required to inhibit 50% cellular growth for 72 h
Description: (§1) Example 2 describes the in vitro cytotoxicity, which is indicative of the induction of cell death and/or inhibition of cellular proliferation of cancer cells, of the Au(III)-NHC complexes on cervical epithelioid carcinoma, hepatocellular carcinoma, leukemia, nasopharyngeal carcinoma, breast carcinoma, melanoma, and lung carcinoma.
(§2) By means of MTT assays, the cytotoxic properties of 1-11 were determined toward some established human cancer cell lines including hepatocellular carcinoma (HepG2), cervical epithelioid carcinoma (HeLa), lung carcinoma (NCI-H460), breast cancer (MCF-7), melanoma (B 16) and nasopharyngeal carcinoma (SUNE1).

[2] = tested on: lung carcinoma (NCI-H460); assay: MTT cytotoxicity assay, NCI-H460; format: cell-based, human; conditions: 72 h
Description: as §1, §2

breast cancer (MCF-7) = assay: MTT cytotoxicity assay, MCF-7; format: cell-based, human; conditions: 72 h
Description: as §1, §2

[3] = tested on: Thioredoxin reductase (TrxR); conditions: HeLa cells incubated for 1 h; compared with auranofin
Description: Cell-based TrxR activity experiment was incorporated in our experiments. […] The cell lysates (10 μg proteins) were added to a buffer (100 μL) containing 100 mM potassium phosphate, pH 7.4, 1 mM EDTA and 0.2 mM NADPH. Reaction was initiated by adding 5,5′-dithiobis(2-nitrobenzoic acid) (DTNB, 3 mM final) and the TrxR activities were determined as increases in O.D. 410 nm in 10 min.

[4] = tested on: nasopharyngeal carcinoma (SUNE1); assay: MTT cytotoxicity assay, SUNE1; format: cell-based, human; conditions: 72 h
Description: as §1, §2

melanoma (B 16) = assay: MTT cytotoxicity assay, B16; format: cell-based, mouse; conditions: 72 h
Description: as §1, §2

[5] = tested on: hepatocellular carcinoma (HepG2); assay: MTT cytotoxicity assay, HepG2; format: cell-based, human; conditions: 72 h
Description: as §1, §2

HeLa xenograft = assay: In vivo tumor inhibition, mice bearing HeLa xenograft; conditions: 3 mg/kg, nude mice bearing HeLa xenograft
Description: Female BALB/cAnN-nu (Nude), 5-7 weeks old, were purchased from the Charles River Laboratories (Wilmington, Mass.) and cared for according to the guidelines of the Laboratory Animal Unit of the University of Hong Kong (HKU). All animal experiments were conducted under the guidelines approved by the Committee on the Use of Live Animals in Teaching and Research of HKU. To establish the HeLa xenograft model, 4×10^6 HeLa cells suspended in 100 μl of PBS were inoculated into the back flanks of female BALB/cAnN-nu (Nude) mice by subcutaneous injection. When the tumor volumes reached about 50 mm^3 (4 days after tumor inoculation), the mice were randomly divided into different treatment groups (3 mg/kg of 5 or solvent control). Complex 5 was reconstituted in PET diluent (60% polyethylene glycol 400, 30% ethanol, 10% Tween 80). Complex 5 dissolved in PET diluent and then diluted in PBS or PBS supplemented with equal amount of PET were injected into the mice by intratumoral injection once every three days until the mice were sacrificed. In this model, the volume of PET diluent injected into each mouse was ≦6 μl. Tumor sizes were measured once every 3 times a week, and tumor volume (V) was calculated by the formula V=ab^2×0.52, where a and b were the longest and the shortest diameters of the xenografted tumor. The tumor inhibition was calculated according to the following formula: Inhibition percentage=[1−(V−V0)/(V′−V0′)]×100% where V and V′ are the tumor volumes of 5 treatment and solvent control, respectively. V0 and V0′ are the initial tumor volumes of the 5 treatment and solvent control, respectively.

[6] = Preliminary toxicity experiment in mice; format: in vivo
PARP, caspase 3, 7 and 9 = assay: Western blotting of apoptosis related proteins in HeLa cells; format: cell-based, human; conditions: 15 μM, 48 h
Description: Meanwhile, considerable attention has been paid on apoptosis for which can lead cancer cell death. After treating HeLa cells with 15 μM of complex 9 for 48 h, apoptosis related PARP, caspase 3, 7 and 9 were activated according to western blotting results (FIG. 4b).

HeLa cells = assay: Fluorescence microscopic examination of HeLa cells; format: cell-based, human; conditions: 20 μM, 10 min, ex 340 nm
Description: Fluorescence microscopic examination 9: HeLa cells (1×10^5 cells) were seeded in a one chamber slide (Nalgene; Nunc) with culture medium (2 mLwell^−1) and incubated at 37° C. in a humidified atmosphere of 5% CO2/95% air for 24 h. After treating with 9 (20 μM, 1 mL) for 10 min, cells were directly exposed for fluorescent imaging without removing the old medium. The bright-field and fluorescent images (ex: 340 nm) were examined in Axiovert 200 (Carl Zeiss) and in an Axio Vision Rel. 4.5 imaging system (Carl Zeiss).

Structure (SMILES)	IC50 [1]	IC50 [2]	IC50 (breast cancer (MCF-7))	Inhibition of cell-based TrxR activity [3]	IC50 [4]	IC50 (melanoma (B 16))	IC50 [5]	Tumor inhibition after 11 days (HeLa xenograft; intratumoral injection once every three days, 11 days (p<0.05))	Tumor inhibition after 14 days (HeLa xenograft; intratumoral injection once every three days, 14 days (p<0.01))	Mouse death / mouse body weight loss during treatment (HeLa xenograft; intratumoral)	Toxicity to mice at 7 mg/kg (body weight) ([6]; 7 mg/kg)	Toxicity to mice at 20 mg/kg ([6]; 20 mg/kg)	Activation of apoptosis related PARP, caspase 3, 7 and 9 (western blotting) (PARP, caspase 3, 7 and 9)	Cellular fluorescence (localisation) (HeLa cells)
Cn1cc[n+](C)[c]1[Au-]12[n]3ccnc3-c3cccc([n+]31)-c1ncc[n]12.O=S(=O)([O-])C(F)(F)F [Complex 1]	32.9 ± 1.3 µM	55 ± 8.5 µM	18.4 ± 0.3 µM	can inhibit cell-based TrxR activity similarly to auranofin	28.7 ± 7.3 µM	30.6 ± 0.3 µM	36.2 ± 2.2 µM	–	–	–	–	–	–	–
CCCCCCCCn1cc[n+](C)[c]1[Au-]12[n]3ccnc3-c3cccc([n+]31)-c1ncc[n]12.O=S(=O)([O-])C(F)(F)F [Complex 3]	14 ± 0.3 µM	17.3 ± 0.3 µM	8.5 ± 0.2 µM	–	8.9 ± 0.6 µM	3.8 ± 0.1 µM	14.7 ± 1.5 µM	–	–	–	–	–	–	–
CCCCCCCCCCn1cc[n+](C)[c]1[Au-]12[n]3ccnc3-c3cccc([n+]31)-c1ncc[n]12.O=S(=O)([O-])C(F)(F)F [Complex 4]	8.2 µM	9.7 ± 0.4 µM	6.5 ± 0.5 µM	–	5.5 ± 0.3 µM	1.6 ± 0.1 µM	11.8 ± 1.2 µM	–	–	–	–	–	–	–
CCCCCCCCCCCCCCCCn1cc[n+](C)[c]1[Au-]12[n]3ccnc3-c3cccc([n+]31)-c1ncc[n]12.O=S(=O)([O-])C(F)(F)F [Complex 5]	1.4 ± 0.2 µM	1.4 ± 0.1 µM	2.9 ± 0.2 µM	–	28.6 ± 0.3 µM	2.2 ± 0.1 µM	3.3 ± 0.5 µM	up to 60%	≤ 76%	No mouse death or mouse body weight loss was found	slight drop of body weight	toxic to mice	–	–
CCCCn1cc[n+](CCCC)[c]1[Au-]12[n]3ccnc3-c3cccc([n+]31)-c1ncc[n]12.O=S(=O)([O-])C(F)(F)F [Complex 6]	13 ± 1.6 µM	7.9 ± 1.1 µM	12.9 ± 2 µM	–	9.9 ± 0.2 µM	8.3 ± 0.2 µM	28.7 ± 5.9 µM	–	–	–	–	–	–	–
CCCCCCn1cc[n+](CCCCCC)[c]1[Au-]12[n]3ccnc3-c3cccc([n+]31)-c1ncc[n]12.O=S(=O)([O-])C(F)(F)F [Complex 7]	8.2 µM	34.6 ± 3.1 µM	8.6 ± 0.1 µM	–	36.8 ± 1.6 µM	7.7 ± 1 µM	9.1 ± 0.3 µM	–	–	–	–	–	–	–
C[n+]1ccn(CCC[P+](c2ccccc2)(c2ccccc2)c2ccccc2)[c]1[Au-]12[n]3ccnc3-c3cccc([n+]31)-c1ncc[n]12.O=S(=O)([O-])C(F)(F)F.O=S(=O)([O-])C(F)(F)F [Complex 8]	77.4 ± 1.8 µM	65.4 ± 1.1 µM	49.7 ± 3 µM	–	47.3 ± 6.2 µM	36.8 ± 0.9 µM	–	–	–	–	–	–	–	–
Cn1cc[n+](C)[c]1[Au-]12[n]3c(nc4ccccc43)-c3cccc([n+]31)-c1nc3ccccc3[n]12.O=S(=O)([O-])C(F)(F)F [Complex 9]	14.4 µM	11.2 ± 0.7 µM	11.9 ± 1 µM	can inhibit cell-based TrxR activity similarly to auranofin	11.2 ± 0.6 µM	12.4 ± 0.1 µM	18 ± 0.5 µM	–	–	–	–	–	activated	significant blue fluorescence was detected in cytoplasm but not in nucleus or extracellular environment
CCCCn1cc[n+](CCCC)[c]1[Au-]12[n]3c(nc4ccccc43)-c3cccc([n+]31)-c1nc3ccccc3[n]12.O=S(=O)([O-])C(F)(F)F [Complex 10]	9.2 ± 0.4 µM	5.5 ± 0.3 µM	8.7 ± 0.2 µM	–	5.2 ± 1.6 µM	5.2 ± 0.2 µM	14.7 ± 1.1 µM	–	–	–	–	–	–	–
CCCCCCn1cc[n+](CCCCCC)[c]1[Au-]12[n]3c(nc4ccccc43)-c3cccc([n+]31)-c1nc3ccccc3[n]12.O=S(=O)([O-])C(F)(F)F [Complex 11]	8.4 ± 0.1 µM	5 ± 0.1 µM	4 ± 0.1 µM	–	3.1 ± 0.3 µM	5.5 ± 0.1 µM	2.6 ± 0.4 µM	–	–	–	–	–	–	–

From US8828984B2, “Gold(III) complexes containing N-heterocyclic carbene ligand, synthesis, and their applications in cancer treatment and thiol detection” (University of Hong Kong, priority 2012, dated 2014)
